The experiment addresses T1, F508delCFTR (Homo sapiens, UniProt P13569, DEL508-508).
T1 construct: expressed in transfected cells; host or cells: CFBE41o- human lung derived epithelial cells (CFBE41o-F508delCFTR-HRP), doxycycline-inducible
As to the kind of experiment: Cell Surface Expression-Horse Radish Peroxidase (CSE-HRP) Assay.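 On EC50 (with co-corrector): co-corrector chromenyl benzoic acid corrector at 2 or 3 µM.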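 On Maximum % activity (without co-corrector): % of on-plate positive control chromenyl benzoic acid corrector at 2 or 3 µM.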 The note with it: for Maximum % activity (with co-corrector) / Emax: maximum at any tested concentration; for Emax: read-out: Maximum % activity (without co-corrector). It counts as cell-based. In a few lines: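 Corrector compounds were given as 8-point 3-fold series from 20 or 30 μM, with or without a 2 μM co-corrector, for 18-24 h at 33 °C. Surface HRP was read by luminol luminescence as % of positive control; variable-Hill-slope sigmoidal fitting gave EC50 from triplicate plates.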

The mark [1] stands for this setting: test compound alone, without co-corrector, read-out: EC50 (without co-corrector).
Setting [2] is: with co-corrector, read-out: EC50 (with co-corrector).
Where [3] appears, read: test compound with co-corrector.
The mark [4] stands for this setting: test compound with co-corrector, read-out: EC50 (with co-corrector).
The mark [5] stands for this setting: test compound without co-corrector.
[6] abbreviates: test compound without co-corrector, read-out: EC50 (without co-corrector).

Like-named read-outs stand apart in the source and are kept apart here.

T1 sequence (P13569 with tags, fused parts or gaps DEL508-508): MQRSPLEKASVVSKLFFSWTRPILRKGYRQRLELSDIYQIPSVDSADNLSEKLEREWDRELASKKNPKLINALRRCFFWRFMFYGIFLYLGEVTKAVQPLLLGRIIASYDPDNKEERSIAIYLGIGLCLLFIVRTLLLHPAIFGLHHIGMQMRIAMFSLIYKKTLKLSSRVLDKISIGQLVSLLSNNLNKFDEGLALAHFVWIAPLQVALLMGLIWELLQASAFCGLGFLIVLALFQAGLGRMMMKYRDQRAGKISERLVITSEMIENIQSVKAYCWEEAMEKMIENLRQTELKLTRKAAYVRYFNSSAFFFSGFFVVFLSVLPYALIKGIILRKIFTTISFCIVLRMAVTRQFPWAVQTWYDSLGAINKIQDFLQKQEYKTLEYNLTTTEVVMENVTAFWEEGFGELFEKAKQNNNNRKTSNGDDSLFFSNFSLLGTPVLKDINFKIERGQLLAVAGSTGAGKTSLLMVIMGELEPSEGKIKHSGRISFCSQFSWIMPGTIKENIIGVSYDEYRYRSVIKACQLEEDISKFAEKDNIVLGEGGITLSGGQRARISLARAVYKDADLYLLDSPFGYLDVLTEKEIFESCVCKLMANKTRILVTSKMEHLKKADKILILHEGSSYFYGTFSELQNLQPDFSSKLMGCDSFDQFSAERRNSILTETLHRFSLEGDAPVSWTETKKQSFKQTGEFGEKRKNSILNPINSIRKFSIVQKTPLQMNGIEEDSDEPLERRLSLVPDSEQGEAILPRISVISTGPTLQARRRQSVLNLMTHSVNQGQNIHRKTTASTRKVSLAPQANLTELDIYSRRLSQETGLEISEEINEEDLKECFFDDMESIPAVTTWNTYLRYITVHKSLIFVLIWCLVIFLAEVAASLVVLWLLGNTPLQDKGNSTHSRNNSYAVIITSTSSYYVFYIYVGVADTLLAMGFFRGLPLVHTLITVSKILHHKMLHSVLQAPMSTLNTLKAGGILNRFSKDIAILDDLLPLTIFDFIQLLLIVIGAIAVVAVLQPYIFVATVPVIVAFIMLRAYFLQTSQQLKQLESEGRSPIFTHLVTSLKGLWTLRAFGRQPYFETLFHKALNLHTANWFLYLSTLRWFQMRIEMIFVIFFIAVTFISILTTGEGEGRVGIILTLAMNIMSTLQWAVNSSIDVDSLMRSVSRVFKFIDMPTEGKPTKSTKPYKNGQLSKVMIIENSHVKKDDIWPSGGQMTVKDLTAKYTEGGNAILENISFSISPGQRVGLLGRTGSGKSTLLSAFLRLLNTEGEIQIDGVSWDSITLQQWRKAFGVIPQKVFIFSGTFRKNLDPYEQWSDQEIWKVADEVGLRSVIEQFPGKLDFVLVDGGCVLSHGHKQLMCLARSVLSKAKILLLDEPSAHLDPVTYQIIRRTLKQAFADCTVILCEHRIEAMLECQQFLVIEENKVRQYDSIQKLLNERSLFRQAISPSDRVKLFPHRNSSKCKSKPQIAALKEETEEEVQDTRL

A word on the EC50: it is the concentration needed to bring the measured effect to its halfway point. Consider `COc1ccc(C)cc1C1(C(=O)NS(=O)(=O)c2cccc3ncccc23)CC1` [Example I-44, 1-(2-methoxy-5-methylphenyl)-N-(quinoline-5-sulfonyl)cyclopropane-1-carboxamide], for which the EC50 by setting is: under setting [1], under 3 µM; under setting [2], under 3 µM. Moreover, for the setting “with co-corrector”, the “Maximum % activity (with co-corrector)” value is on record as “+++ (≥350)”. The Emax (without co-corrector) is over 150%.

On to `COCC1(c2ccc(OC)c(C3(C(=O)NS(=O)(=O)c4cccc5nc(C)ccc45)CC3)c2)CC1` [Example I-74, 1-{2-methoxy-5-[1-(methoxymethyl)cyclopropyl]phenyl}-N-(2-methylquinoline-5-sulfonyl)cyclopropane-1-carboxamide], for which the EC50 reads like this: under setting [1], under 3 µM; under setting [2], under 3 µM. Besides, where the note is “with co-corrector”, the “Maximum % activity (with co-corrector)” value is reported as “+++ (≥350)”. Besides, where the note is “without co-corrector”, the Emax is over 150%.

On to `O=C(NS(=O)(=O)C1CC1)C1(c2ccc(Cl)cc2Cl)CC1` [Example III-28, N-(cyclopropanesulfonyl)-1-(2,4-dichlorophenyl)cyclopropane-1-carboxamide], for which the EC50 runs as follows: under setting [1], over 10 µM; under setting [2], 3 to 10 µM. In addition, the “Maximum % activity (with co-corrector)” value (with co-corrector) was “+ (<150)”. In addition, the Emax (without co-corrector) is under 50%.

`CCc1cnc(N(C)C)c(C2(C(=O)NS(=O)(=O)c3cccc4nc(C)ccc34)CC2)c1` [GII-48, 1-[2-(dimethylamino)-5-ethylpyridin-3-yl]-N-(2-methylquinoline-5-sulfonyl)cyclopropane-1-carboxamide]: the “Maximum % activity (with co-corrector)” value under setting [3] is recorded as “+++ (≥350)”. Also, the EC50 by setting is: under setting [4], 3 to 10 µM; under setting [6], 3 to 10 µM. Under setting [5], the Emax is over 150%.

In the case of `CN(C(=O)C1(c2ccc(Cl)cc2Cl)CC1)S(=O)(=O)c1ccc(Cl)cc1` [Example III-19, N-(4-chlorobenzene-1-sulfonyl)-1-(2,4-dichlorophenyl)-N-methylcyclopropane-1-carboxamide], the EC50 was over 10 µM under setting [1] and over 10 µM under setting [2]. For the same molecule, the “Maximum % activity (with co-corrector)” value (with co-corrector) is “+ (<150)”. Moreover, where the note is “without co-corrector”, the Emax is under 50%.

Regarding `CC(C)Oc1cnc(OC(C)C)c(C2(C(=O)NS(=O)(=O)c3cccc4ncccc34)CC2)c1` [Example GI-65, 1-{2,5-bis[(propan-2-yl)oxy]pyridin-3-yl}-N-(quinoline-5-sulfonyl)cyclopropane-1-carboxamide], under setting [3], the “Maximum % activity (with co-corrector)” value is given as “+++ (≥350)”. Further, the EC50 is under 3 µM under setting [4] and under 3 µM under setting [6]. Besides, under setting [5], the Emax was over 150%.

Take `COc1cc(C2(C(=O)NS(=O)(=O)c3cccc4[nH]ncc34)CC2)c(OCC(C)C)cn1` [II-91]: the EC50 under setting [1] fell in the range of 3 to 10 µM and the EC50 under setting [2] is under 3 µM. In addition, the “Maximum % activity (with co-corrector)” value (with co-corrector) was “+++ (≥350)”. Also, the Emax (without co-corrector) is over 150%.

Regarding `COc1ncc(C(F)(F)F)cc1C1(C(=O)NS(=O)(=O)c2cccn3nccc23)CC1` [Example III-95, 1-[2-methoxy-5-(trifluoromethyl)pyridin-3-yl]-N-(pyrazolo[1,5-a]pyridine-4-sulfonyl)cyclopropane-1-carboxamide], the half-maximal effective concentration (EC50) reads like this: under setting [1], 3 to 10 µM; under setting [2], 3 to 10 µM. The “Maximum % activity (with co-corrector)” value (with co-corrector) is “+++ (≥350)”. The Emax (without co-corrector) was over 150%.

With `COc1ncc(C2CCC2)cc1C1(C(=O)NS(=O)(=O)c2cccc3ncccc23)CC1` [Example I-4, 1-(5-cyclobutyl-2-methoxypyridin-3-yl)-N-(quinoline-5-sulfonyl)cyclopropane-1-carboxamide], the EC50 by setting is: under setting [1], under 3 µM; under setting [2], under 3 µM. The “Maximum % activity (with co-corrector)” value (with co-corrector) is on record as “+++ (≥350)”. Further, where the note is “without co-corrector”, the Emax was over 150%.

As for `CC(C)COc1cnc(C2CC2)c(C2(C(=O)NS(=O)(=O)c3cccc4ncccc34)CC2)c1` [Example GI-12, 1-[2-cyclopropyl-5-(2-methylpropoxy)pyridin-3-yl]-N-(quinoline-5-sulfonyl)cyclopropane-1-carboxamide], the EC50 by setting is: under setting [1], under 3 µM; under setting [2], under 3 µM. For the same molecule, the “Maximum % activity (with co-corrector)” value (with co-corrector) is recorded as “+++ (≥350)”. Also, the Emax (without co-corrector) was over 150%.

On to `O=C(NS(=O)(=O)CCCCl)C1(c2ccc(Cl)cc2Cl)CC1` [Example III-108, N-(3-chloropropane-1-sulfonyl)-1-(2,4-dichlorophenyl)cyclopropane-1-carboxamide], for which the EC50 was over 10 µM under setting [1] and 3 to 10 µM under setting [2]. Moreover, the “Maximum % activity (with co-corrector)” value (with co-corrector) was “++ (≥150 and <350)”. Besides, the Emax (without co-corrector) is under 50%.

For `COC(=O)c1csc(S(=O)(=O)NC(=O)C2(c3ccc(Cl)cc3Cl)CC2)c1OC` [Example III-11, methyl 5-{[1-(2,4-dichlorophenyl)cyclopropane-1-carbonyl]sulfamoyl}-4-methoxythiophene-3-carboxylate], the EC50 under setting [1] is over 10 µM and the EC50 under setting [2] is over 10 µM. Further, where the note is “with co-corrector”, the “Maximum % activity (with co-corrector)” value is “+ (<150)”. Further, the Emax (without co-corrector) is under 50%.

On to `COC[C@@H](C)Oc1ccc(C)cc1C1(C(=O)NS(=O)(=O)c2cccc3nc(C)ccc23)CC1` [Example I-107, 1-(2-{[(2R)-1-methoxypropan-2-yl]oxy}-5-methylphenyl)-N-(2-methylquinoline-5-sulfonyl)cyclopropane-1-carboxamide], for which the EC50 under setting [1] is under 3 µM and the EC50 under setting [2] was under 3 µM. Further, the “Maximum % activity (with co-corrector)” value (with co-corrector) is “+++ (≥350)”. Besides, the Emax (without co-corrector) was over 150%.

Consider `COc1nc(C(F)(F)F)ccc1C1(C(=O)NS(=O)(=O)c2cccc3c2CCCN3)CC1` [GII-12, 1-[2-methoxy-6-(trifluoromethyl)pyridin-3-yl]-N-(1,2,3,4-tetrahydroquinoline-5-sulfonyl)cyclopropane-1-carboxamide], for which the “Maximum % activity (with co-corrector)” value under setting [3] is listed as “+++ (≥350)”. Moreover, the EC50 reads like this: under setting [4], 3 to 10 µM; under setting [6], 3 to 10 µM. The Emax under setting [5] lay in the range of 50 to 150%.

Turning to `O=C(NS(=O)(=O)Cc1ccccc1)C1(c2ccccc2F)CC1` [Example III-35, 1-(2-fluorophenyl)-N-(phenylmethanesulfonyl)cyclopropane-1-carboxamide], the EC50 was over 10 µM under setting [1] and over 10 µM under setting [2]. The “Maximum % activity (with co-corrector)” value (with co-corrector) was “++ (≥150 and <350)”. Further, the Emax (without co-corrector) is under 50%.

`COc1ncc(C2CCC2)cc1C1(C(=O)NS(=O)(=O)c2cccc3c2ccn3C)CC1` [II-14]: the concentration giving a half-maximal response (EC50) is, setting by setting: under setting [1], under 3 µM; under setting [2], under 3 µM. Moreover, under “with co-corrector”, the “Maximum % activity (with co-corrector)” value was “+++ (≥350)”. The Emax (without co-corrector) is over 150%.

`COc1ccc(OC(F)F)cc1C1(C(=O)NS(=O)(=O)c2cccc3ncccc23)CC1` [Example I-65, 1-[5-(difluoromethoxy)-2-methoxyphenyl]-N-(quinoline-5-sulfonyl)cyclopropane-1-carboxamide]: the EC50 is 3 to 10 µM under setting [1] and under 3 µM under setting [2]. For the same molecule, for the setting “with co-corrector”, the “Maximum % activity (with co-corrector)” value is on record as “+++ (≥350)”. Further, where the note is “without co-corrector”, the Emax is over 150%.

Take `CCc1cnc(OCC(C)C)c(C2(C(=O)NS(=O)(=O)c3cccc4ncccc34)CC2)c1` [Example GI-45, 1-[5-ethyl-2-(2-methylpropoxy)pyridin-3-yl]-N-(quinoline-5-sulfonyl)cyclopropane-1-carboxamide]: the “Maximum % activity (with co-corrector)” value under setting [3] is given as “+++ (≥350)”. The EC50 by setting is: under setting [4], under 3 µM; under setting [6], under 3 µM. In addition, the Emax under setting [5] is over 150%.

Take `COc1ccc(C23CC(C2)C3)cc1C1(C(=O)NS(=O)(=O)c2cccc3c2CCCN3)CC1` [Example III-101, 1-[5-(bicyclo[1.1.1]pentan-1-yl)-2-methoxyphenyl]-N-(1,2,3,4-tetrahydroquinoline-5-sulfonyl)cyclopropane-1-carboxamide]: the EC50 reads like this: under setting [1], under 3 µM; under setting [2], under 3 µM. Besides, the “Maximum % activity (with co-corrector)” value (with co-corrector) is listed as “+++ (≥350)”. For the same molecule, under “without co-corrector”, the Emax is over 150%.

Turning to `CCOc1ccc2nc(S(=O)(=O)NC(=O)C3(c4cccc(Cl)c4)CC3)sc2c1` [Example III-56, 1-(3-chlorophenyl)-N-(6-ethoxy-1,3-benzothiazole-2-sulfonyl)cyclopropane-1-carboxamide], the EC50 under setting [1] is over 10 µM and the EC50 under setting [2] is over 10 µM. Moreover, under “with co-corrector”, the “Maximum % activity (with co-corrector)” value was “+ (<150)”. Further, the Emax (without co-corrector) was under 50%.

For `COc1cc(C2(C(=O)NS(=O)(=O)c3cccc4c3CCCN4)CC2)c(Cl)cn1` [GII-7, 1-(5-chloro-2-methoxypyridin-4-yl)-N-(1,2,3,4-tetrahydroquinoline-5-sulfonyl)cyclopropane-1-carboxamide], the “Maximum % activity (with co-corrector)” value under setting [3] was “+++ (≥350)”. Also, the concentration giving a half-maximal response (EC50) reads like this: under setting [4], 3 to 10 µM; under setting [6], 3 to 10 µM. Further, the Emax under setting [5] lay within 50 to 150%.

`COc1ccc(C#N)cc1C1(C(=O)NS(=O)(=O)c2cccc3ncccc23)CC1` [Example III-99, 1-(5-cyano-2-methoxyphenyl)-N-(quinoline-5-sulfonyl)cyclopropane-1-carboxamide]: the EC50 lay in the range of 3 to 10 µM under setting [1] and 3 to 10 µM under setting [2]. The “Maximum % activity (with co-corrector)” value (with co-corrector) is reported as “+++ (≥350)”. Besides, where the note is “without co-corrector”, the Emax lay in the range of 50 to 150%.

In the case of `CCc1cnc(N2CCN(C)CC2)c(C2(C(=O)NS(=O)(=O)c3cccc4ncccc34)CC2)c1` [GIII-33], the “Maximum % activity (with co-corrector)” value under setting [3] is “+ (<150)”. For the same molecule, the EC50 is, setting by setting: under setting [4], over 10 µM; under setting [6], over 10 µM. Also, the Emax under setting [5] was under 50%.

With `COc1cc(C2CCC2)cc(OC)c1C1(C(=O)NS(=O)(=O)c2cccc3[nH]ncc23)CC1` [II-76], the EC50 under setting [1] was 3 to 10 µM and the EC50 under setting [2] fell in the range of 3 to 10 µM. Moreover, the “Maximum % activity (with co-corrector)” value (with co-corrector) is given as “+++ (≥350)”. Also, the Emax (without co-corrector) is over 150%.

Source of the values: US10829473B2, “Modulators of the cystic fibrosis transmembrane conductance regulator protein and methods of use” (AbbVie Overseas S.Á.R.L., priority 2017, dated 2020).
